From patent EP2758401B1 (Bayer Intellectual Property GmbH, priority 2011, dated 2013)

Columns and labels:
MKNK1 [1] = target: T1, MKNK1 (Homo sapiens, UniProt Q9BUB5, T385D); assay: MKNK1 kinase high ATP assay (TR-FRET); format: biochemical; details: ATP final conc. 2 mM; 15 min pre-incubation; reaction time 30 min at 22°C
T1 construct: GST (N); purchased Carna Biosciences 02-145; host or cells: insect cells (baculovirus expression system)
Experimental: MKNK1-inhibitory activity at high ATP of compounds of the present invention after their preincubation with MKNK1 was quantified employing the TR-FRET-based MKNK1 high ATP assay as described in the following paragraphs.
As substrate for the kinase reaction the biotinylated peptide biotin-Ahx-[…] (C-terminus in amide form) was used, which can be purchased e.g. from the company Biosyntan (Berlin-Buch, Germany).
For the assay 50 nL of a 100fold concentrated solution of the test compound in DMSO was pipetted into a black low volume 384well microtiter plate (Greiner Bio-One, Frickenhausen, Germany), 2 µL of a solution of MKNK1 in aqueous assay buffer [50 mM HEPES pH 7.5, 5 mM magnesium chloride, 1.0 mM dithiothreitol, 0.005% (v/v) Nonidet-P40 (Sigma)] was added and the mixture was incubated for 15 min at 22°C to allow pre-binding of the test compounds to the enzyme before the start of the kinase reaction. Then the kinase reaction was started by the addition of 3 µL of a solution of adenosine-tri-phosphate (ATP, 3.3 mM => final conc. in the 5 µL assay volume is 2 mM) and substrate (0.1 µM => final conc. in the 5 µL assay volume is 0.06 µM) in assay buffer and the resulting mixture was incubated for a reaction time of 30 min at 22°C. The concentration of MKNK1 was adjusted depending of the activity of the enzyme lot and was chosen appropriate to have the assay in the linear range, typical concentrations were in the range of 0.003 µg/mL. The reaction was stopped by the addition of 5 µL of a solution of TR-FRET detection reagents (5 nM streptavidine-XL665 [Cisbio Bioassays, Codolet, France] and 1 nM anti-ribosomal protein S6 (pSer236)-antibody from Invitrogen [# 44921G] and 1 nM LANCE EU-W1024 labeled ProteinG [Perkin-Elmer, product no. AD0071]) in an aqueous EDTA-solution (100 mM EDTA, 0.1 % (w/v) bovine serum albumin in 50 mM HEPES pH 7.5).
(§1) The resulting mixture was incubated for 1 h at 22°C to allow the formation of complex between the phosphorylated biotinylated peptide and the detection reagents. Subsequently the amount of phosphorylated substrate was evaluated by measurement of the resonance energy transfer from the Eu-chelate to the streptavidine-XL. Therefore, the fluorescence emissions at 620 nm and 665 nm after excitation at 350 nm were measured in a TR-FRET reader, e.g. a Rubystar (BMG Labtechnologies, Offenburg, Germany) or a Viewlux (Perkin-Elmer). The ratio of the emissions at 665 nm and at […] was taken as the measure for the amount of phosphorylated substrate. The data were normalised (enzyme reaction without inhibitor = 0 % inhibition, all other assay components but no enzyme = 100 % inhibition).

MKNK1 [2] = target: T1, MKNK1; assay: MKNK1 kinase assay (TR-FRET); format: biochemical; details: ATP final conc. 10 µM; 15 min pre-incubation; reaction time 45 min at 22°C
Experimental: MKNK1-inhibitory activity of compounds of the present invention was quantified employing the MKNK1 TR-FRET assay as described in the following paragraphs.
As substrate for the kinase reaction the biotinylated peptide biotin-Ahx-[…] (C-terminus in amide form) was used which can be purchased e.g. form the company Biosyntan (Berlin-Buch, Germany).
For the assay 50 nL of a 100fold concentrated solution of the test compound in DMSO was pipetted into a black low volume 384well microtiter plate (Greiner Bio-One, Frickenhausen, Germany), 2 µL of a solution of MKNK1 in aqueous assay buffer [50 mM HEPES pH 7.5, 5 mM magnesium chloride, 1.0 mM dithiothreitol, 0.005% (v/v) Nonidet-P40 (Sigma)] was added and the mixture was incubated for 15 min at 22°C to allow pre-binding of the test compounds to the enzyme before the start of the kinase reaction. Then the kinase reaction was started by the addition of 3 µL of a solution of adenosine-tri-phosphate (ATP, 16.7 µM => final conc. in the 5 µL assay volume is 10 µM) and substrate (0.1 µM => final conc. in the 5 µL assay volume is 0.06 µM) in assay buffer and the resulting mixture was incubated for a reaction time of 45 min at 22°C.
as §1, with “inhibition). […] Table 1: MKNK1 IC50s” for “inhibition).”

T1 sequence (Q9BUB5 1-424 isoform Q9BUB5-2 T344D): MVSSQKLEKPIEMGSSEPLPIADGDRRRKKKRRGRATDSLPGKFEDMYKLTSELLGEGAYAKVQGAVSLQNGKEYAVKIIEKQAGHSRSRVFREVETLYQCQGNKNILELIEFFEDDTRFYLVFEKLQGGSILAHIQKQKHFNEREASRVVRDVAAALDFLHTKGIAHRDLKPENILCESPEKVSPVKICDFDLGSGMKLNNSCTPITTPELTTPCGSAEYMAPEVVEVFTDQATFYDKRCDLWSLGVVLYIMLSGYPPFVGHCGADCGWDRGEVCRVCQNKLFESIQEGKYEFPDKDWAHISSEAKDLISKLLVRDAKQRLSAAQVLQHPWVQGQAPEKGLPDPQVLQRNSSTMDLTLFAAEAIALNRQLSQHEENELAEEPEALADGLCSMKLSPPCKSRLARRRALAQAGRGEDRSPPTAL

SMILES | IC50 (MKNK1 [1]) | IC50 (MKNK1 [2])
C[C@H](N)COc1ccc2ncc(-c3cc4c(F)cccc4o3)n2n1 [Example 45, (2S)-1-{[3-(4-Fluoro-1-benzofuran-2-yl)imidazo[1,2-b]pyridazin-6-yl]oxy}-propan-2-amine] | 71 nM | 17 nM
N[C@H](COc1ccc2ncc(-c3cc4c(F)cccc4o3)n2n1)c1ccccc1 [Example 46, (1S)-2-{[3-(4-Fluoro-1-benzofuran-2-yl)imidazo[1,2-b]pyridazin-6-yl]oxy}-1-phenylethanamine] | 67 nM | 36 nM
C[C@H](CN)Oc1ccc2ncc(-c3cc4cccc(F)c4o3)n2n1 [Example 48, (2R)-2-{[3-(7-Fluoro-1-benzofuran-2-yl)imidazo[1,2-b]pyridazin-6-yl]oxy}-propan-1-amine] | 115 nM | 71 nM
Cc1ccc2oc(-c3cnc4ccc(O[C@H](C)CN)nn34)cc2c1 [Example 49] | 154 nM | 88 nM
N[C@H](COc1ccc2ncc(-c3cc4ccccc4o3)n2n1)Cc1ccccc1 [Example 50, (2S)-1-{[3-(1-Benzofuran-2-yl)imidazo[1,2-b]pyridazin-6-yl]oxy}-3-phenyl-propan-2-amine] | 54 nM | 27 nM
NC1(COc2ccc3ncc(-c4cc5ccccc5o4)n3n2)CC1 [Example 51, 1-({[3-(1-Benzofuran-2-yl)imidazo[1,2-b]pyridazin-6-yl]oxy}methyl)cyclo-propanamine] | 74 nM | 29 nM
NCC(COc1ccc2ncc(-c3cc4ccccc4o3)n2n1)c1ccccc1 (centres unmarked) [Example 52, 3-{[3-(1-Benzofuran-2-yl)imidazo[1,2-b]pyridazin-6-yl]oxy}-2-phenylpropan-1-amine] | 30 nM | 17 nM
